Laboratory results: US20120308567A1, “USE OF TYROSINE KINASE INHIBITORS FOR TREATMENT OF PROLACTINOMA” (CEDARS-SINAI MEDICAL CENTER, priority 2010, published 2012)
“Also recorded” adds a separate entry of the source.

Assays:
[1] = tested on: GH3 cells stably expressing HER2CA; test: Realtime PCR of PRL and GH mRNA in GH3 stable transfectants; format: cell-based, rat; settings: for suppression of PRL expression: Her2CA-GH3 cells
Experimental: A. […] C. GH and PRL secretion in the culture medium determined by RIA. Hormone secretion levels were normalized for cell numbers, Values are mean±SEM. *p<0.05, **p<0.01. […] GH3 rat lacto-somatotroph tumor cells secreting PRL and GH were purchased from the American Type Culture Collection. HER2CA cells were generated by transfection with […]) purchased from Addgene (Addgene plasmid 16259). Stable colonies were selected in the presence of 500 μg/ml G418 (Invitrogen). A vector control cell line pcDNA3 was simultaneously established by transfecting pcDNA3 that lacked inserted cDNA. […] After synchronization by serum starvation (medium containing 0.2% bovine serum albumin for 24 h), cells with treatment agents was grown in fresh serum-depleted medium (0.2% bovine serum albumin), and samples collected at the indicated times. Total RNA was extracted with Trizol reagent (Invitrogen) according to instructions of the manufacturer. The amount and the integrity of RNA were assessed by measurement of absorbance at 260 and 280 nm. Total RNA was reverse-transcribed into first-strand cDNA using iScript cDNA synthesis kit (Bio-Rad Laboratories, Inc.) according to the manufacturer. Quantitative PCR reactions were carried out in the iQ5 Multicolor Real-time PCR Detection System (Bio-Rad Laboratories, Inc.) as described (8). […] Primer sequences (Invitrogen) were [NT] rRNA forward ([…] rRNA reverse ([NT] (human (3-actin [NT] (human (3-actin […]).

[2] = tested on: GH3 cells stably expressing HER2CA; test: Western blotting of cleaved caspase-3 (apoptosis); settings: 0.1-10 μM, 24 hr
human prolactinoma cells = test: Realtime PCR of PRL in primary human prolactinoma cell cultures; format: cell-based; settings: for suppression of PRL mRNA levels: 24 hr
Experimental: A, B, D, and E. After trans-sphenoidal surgery of human prolactinomas, tumor cells were cultured. […] PRL levels in culture media were measured using RIA (B). H&E and PRL staining of tumor and confocal immunocytochemistry of EGFR and HER2 (Tumor A) (C), or for Tumor B (F). Magnification of these figures was 100×. […] PRL levels in culture media were measured using RIA (E). Prolactinoma cells (Tumor B) were treated with U0126 (0.1-5 μM) for 24 hr, and Realtime PCR of PRL performed (G).
Total RNA was extracted with Trizol reagent (Invitrogen) according to instructions of the manufacturer. The amount and the integrity of RNA were assessed by measurement of absorbance at 260 and 280 nm. Total RNA was reverse-transcribed into first-strand cDNA using iScript cDNA synthesis kit (Bio-Rad Laboratories, Inc.) according to the manufacturer. Quantitative PCR reactions were carried out in the iQ5 Multicolor Real-time PCR Detection System (Bio-Rad Laboratories, Inc.) as described (8). Certified RT^2 primer assays for rat GH, PRL and human PRL were purchased from SuperArray. Primer sequences (Invitrogen) were 5′-[…]-3′ (18S rRNA forward (F)), 5′-[…]-3′ (18S rRNA reverse (R)), 5′-[…]-3′ (human (3-actin F), 5′-[…]-3′ (human (3-actin R), 5′-[…]-3′ (human GAPDH F), 5′-[…]-3′ (human GAPDH R).
Human prolactinoma tissues were obtained at the time of surgery (Pituitary Center, Cedars-Sinai Medical Center) and transferred in 0.3% BSA containing DMEM according to an IRB-approved protocol. After washing with medium, tumor tissues were chopped with a sterile scalpel into approximately 1-2 mm pieces. Tissues were rinsed and digested with DMEM containing 0.3% BSA, 0.35% collagenase, and 0.15% hyaluronidase at 37° C. for 30 min The mixture was centrifuged at 1,500 rpm for 5 min at 4° C., and the cell pellet resuspended in an appropriate volume of culture medium containing 10% FBS and antibiotics in 48 well plates. After 24 hr incubation with serum depleted starvation medium (DMEM with 0.3% BSA), treatment agents were added with fresh serum-depleted medium (0.3% BSA), and medium collected for RIA. RNA was extracted after 24 hr treatment. Medium was also collected at baseline. To normalize for cell number effect, the PRL value of treated medium was divided by that of pre-treatment starvation medium to obtain a treated value for each well (n=4).

[3] = tested on: EGF-induced HER2 and MAPK autophosphorylation; test: Western blotting of EGF-induced ErbB signaling and intracellular PRL in HER2CA GH3 cells; format: cell-based, rat
Experimental: GH3 rat lacto-somatotroph tumor cells secreting PRL and GH were purchased from the American Type Culture Collection. HER2CA cells were generated by transfection with pcDNA3-HER2CA (V654E) purchased from Addgene (Addgene plasmid 16259). Stable colonies were selected in the presence of 500 μg/ml G418 (Invitrogen). A vector control cell line pcDNA3 was simultaneously established by transfecting pcDNA3 that lacked inserted cDNA. After selection and propagation of stable transfectants, cells were cultured in DMEM/F12 medium containing 15% horse serum, 2.5% FBS, penicillin/streptomycin, and 500 μg/m G418. After synchronization by serum starvation (medium containing 0.2% bovine serum albumin for ˜24 h), cells with treatment agents was grown in fresh serum-depleted medium (0.2% bovine serum albumin), and samples collected at the indicated times.
Proteins were separated on 4 to 12% NuPAGE Bis-Tris gels and electro-transferred for 3 h to polyvinylidene difluoride membranes (Invitrogen). Membranes were blocked for 1 h in 5% nonfat dry milk or 5% bovine serum albumin in TBS-T buffer, and incubated overnight with primary antibody. The following primary antibodies were used: anti-pErk1/2, anti-Erk1/2, anti-Akt, anti-pEGFR (Tyr1068), anti-EGFR, anti-pHER3/ErbB3 (Tyr1289), and anti-Cleaved Caspase-3 from Cell Signaling Technology, anti-pNeu (Tyr1248), anti-Neu (C-18), anti-HER3/ErbB3, anti-PRL, and anti-GAPDH from Santa Cruz Biotechnology, and anti-pAkt (Ser473) from Abcam. After washing with TBS-T, membranes were incubated with peroxidase-conjugated secondary antibody for 1 h (5% nonfat dry milk or 5% bovine serum albumin in TBS-T buffer).

[4] = tested on: estrogen induced pituitary lactotroph tumor; test: Estrogen induced pituitary lactotroph tumor in Fischer-344 rats; format: in vivo, rat; settings: F344 rats
Experimental: 17β-estradiol-filled capsules or empty capsule were inoculated subcutaneously in F344 rats (4-5 weeks of age) for one month. A. Western blotting analysis was performed using collected pituitary or pituitary tumor. Next 17β-estradiol-filled capsules were inoculated subcutaneously in F344 rats (4-5 weeks of age) for 2 months. After capsule excision, oral vehicle or lapatinib was administered for 2 weeks. […] C. Tumor weights were measured after euthanasia. D. Serum PRL and GH levels were measured by RIA.
Next, 4-5 wk ovariectomized female Fishcer-344 rats (Harlan Sprague Dawley, Inc.) were s.c. implanted with an 17β-estradiol-filled […] brand capsule (Dow Corning Corp., Medical Grade Tubing Special; length, 3 cm; od, 0.125 in.; id, 0.062 in.) under isoflurane inhalational anesthesia. Two months thereafter, when serum PRL levels reached 3000 ng/ml, 17β-estradiol-filled capsules were extracted, and animals were treated with lapatinib (100 mg/kg) or vehicle (0.5% methylcellose, 0.5% tween80/PBS; 100 μl) via oral gavage twice a day for 2 weeks. 500 μl blood was collected for hormone assessment by retro-orbital bleeding under isoflurane inhalational anesthesia. On the last treatment day (day 14), rats were euthanized within 3 h of drug administration. Cardiac blood was collected and pituitary tumors excised and weighed. Fragments of each tumor were fixed in formalin and embedded in paraffin, preserved in RNA later solution, or frozen in liquid nitrogen.
Next, the inventors tested Fischer-344 rats treated with 17β-estradiol as a model for pituitary prolactinomas (24). […] The inventors then extracted the capsule, and initiated oral lapatinib or vehicle treatment for a subsequent 2 weeks.

[5] = Tumor A, lapatinib 0.1-10 μM or gefitinib 10 μM
[6] = 100 mg/kg oral gavage twice a day for 2 weeks

| Structure (SMILES) | suppression of PRL expression [1] [%] | induction of cleaved caspase-3 [2] | suppression of PRL mRNA levels (human prolactinoma cells; [5]) | suppression of PRL mRNA levels (human prolactinoma cells; Tumor B, 0.01-10 μM) [%] | PRL mRNA levels ([1]; HER2CA GH3 cells, 1 μM) | intracellular PRL levels ([3]; Western blotting) | attenuation of Her1/EGFR and Her2/Neu signaling (HER2 and MAPK autophosphorylation) ([3]; pretreated 0.1-10 μM 45 min, EGF 5 nM 10 min) | serum GH levels [4, 6] | suppression of serum PRL levels [4, 6] [%] | suppression of tumor weight ([4]; 100 mg/kg oral gavage twice a day for 2 weeks after capsule extraction) [%] | pituitary tumor growth induced by estrogen ([4]; oral treatment for 2 weeks) | suppression of human PRL mRNA expression (human prolactinoma cells; human primary prolactinoma tumor cell cultures, tumor not named) [%] |
| --- | --- | --- | --- | --- | --- | --- | --- | --- | --- | --- | --- | --- |
| COc1cc2ncnc(Nc3ccc(F)c(Cl)c3)c2cc1OCCCN1CCOCC1 [gefitinib] | ~50 | dose-dependently induced cleaved caspase3 | no effect | ~45 |  |  |  |  |  |  |  |  |
| CS(=O)(=O)CCNCc1ccc(-c2ccc3ncnc(Nc4ccc(OCc5cccc(F)c5)c(Cl)c4)c3c2)o1 [lapatinib, Lapatinib] | ~70 | dose-dependently induced cleaved caspase3; also recorded: induced cleaved-caspase 3 | ~90% | ~45 | more marked suppression | decreased | attenuated EGF-induced HER2 and MAPK autophosphorylation more markedly than gefitinib; also recorded: blocked | not altered | ~35 | ~35 | attenuated | ~80 |
